Data as given in ChEMBL document CHEMBL3297706, “Design, synthesis and evaluation of phenethylaminoheterocycles as K(v)1.5 inhibitors” (Bioorg Med Chem Lett, 2014).
pIC50: −log10 of the molar value. Calls of active or inactive are those of the source. The rule behind the calls is not given here.

How the values were obtained:
[1] = target: T1, Potassium voltage-gated channel subfamily A member 5 (Homo sapiens, UniProt P22460); experiment: Inhibition of human Kv1.5 expressed in mouse L929 cells assessed as inhibition of current; format: cell-based
[2] = Clearance in Sprague-Dawley rat at 10 umol/kg, via carotid artery by LC-MS method; format: ADME, organism-based; details: in vivo
[3] = system: Plasma; experiment: Plasma concentration in rabbit at 1 mg/kg; format: ADME, organism-based, Oryctolagus cuniculus; set-up: dose 1 mg/kg; details: in vivo
[4] = target: hERG (KCNH2) (Homo sapiens, UniProt Q12809); experiment: Inhibition of human ERG at 10 uM
[5] = Half life in Sprague-Dawley rat at 10 umol/kg, via carotid artery by LC-MS method; format: ADME, organism-based; details: in vivo
[6] = Permeability across apical to basolateral side in human Caco2 cells; format: ADME, cell-based; details: Caco-2, read-out: permeability
[7] = system: Oryctolagus cuniculus; experiment: Anti-atrial fibrillation in rabbit assessed as atrial effective refractory period prolongation at 1 mg/kg; format: functional, Cardiac atrium
[8] = Volume of distribution at steady state in Sprague-Dawley rat at 10 umol/kg, via carotid artery by LC-MS method; format: ADME, organism-based; details: in vivo, read-out: Vdss
[9] = Plasma protein binding in rabbit; format: ADME, cell-free, Oryctolagus cuniculus; details: read-out: PPB (converted)
[10] = target: T1, Potassium voltage-gated channel subfamily A member 5; experiment: Inhibition of human Kv1.5 expressed in mouse L929 cells assessed as inhibition of current at 0.3 uM; format: cell-based
[11] = Permeability of the compound by PAMPA; format: ADME; details: read-out: permeability
[12] = system: Oryctolagus cuniculus; experiment: Anti-atrial fibrillation in rabbit assessed as atrial effective refractory period prolongation at 3 mg/kg; format: functional, Cardiac atrium
[13] = organism: Oryctolagus cuniculus; experiment: Anti-atrial fibrillation in rabbit assessed as atrial effective refractory period prolongation; format: functional, organism-based; details: Cardiac atrium
[14] = system: Oryctolagus cuniculus; experiment: Anti-atrial fibrillation in rabbit assessed as ventricular effective refractory period prolongation at 10 mg/kg; format: functional
[15] = system: Oryctolagus cuniculus; experiment: Anti-atrial fibrillation in rabbit assessed as increase in heart rate at 3 mg/kg; format: functional
[16] = system: Oryctolagus cuniculus; experiment: Anti-atrial fibrillation in rabbit assessed as increase in heart rate at 1 mg/kg; format: functional
[17] = system: Oryctolagus cuniculus; experiment: Anti-atrial fibrillation in rabbit assessed as decrease in blood pressure at 3 mg/kg; format: functional
[18] = system: Plasma; experiment: Plasma concentration in rabbit at 3 mg/kg; format: ADME, organism-based, Oryctolagus cuniculus; set-up: dose 3 mg/kg; details: in vivo
[19] = system: Oryctolagus cuniculus; experiment: Anti-atrial fibrillation in rabbit assessed as decrease in blood pressure at 1 mg/kg; format: functional
[20] = system: Oryctolagus cuniculus; experiment: Anti-atrial fibrillation in rabbit assessed as atrial effective refractory period prolongation at 10 mg/kg; format: functional, Cardiac atrium
[21] = system: Plasma; experiment: Plasma concentration in rabbit at 10 mg/kg; format: ADME, organism-based, Oryctolagus cuniculus; set-up: dose 10 mg/kg; details: in vivo

T1 sequence (P22460 whole entry): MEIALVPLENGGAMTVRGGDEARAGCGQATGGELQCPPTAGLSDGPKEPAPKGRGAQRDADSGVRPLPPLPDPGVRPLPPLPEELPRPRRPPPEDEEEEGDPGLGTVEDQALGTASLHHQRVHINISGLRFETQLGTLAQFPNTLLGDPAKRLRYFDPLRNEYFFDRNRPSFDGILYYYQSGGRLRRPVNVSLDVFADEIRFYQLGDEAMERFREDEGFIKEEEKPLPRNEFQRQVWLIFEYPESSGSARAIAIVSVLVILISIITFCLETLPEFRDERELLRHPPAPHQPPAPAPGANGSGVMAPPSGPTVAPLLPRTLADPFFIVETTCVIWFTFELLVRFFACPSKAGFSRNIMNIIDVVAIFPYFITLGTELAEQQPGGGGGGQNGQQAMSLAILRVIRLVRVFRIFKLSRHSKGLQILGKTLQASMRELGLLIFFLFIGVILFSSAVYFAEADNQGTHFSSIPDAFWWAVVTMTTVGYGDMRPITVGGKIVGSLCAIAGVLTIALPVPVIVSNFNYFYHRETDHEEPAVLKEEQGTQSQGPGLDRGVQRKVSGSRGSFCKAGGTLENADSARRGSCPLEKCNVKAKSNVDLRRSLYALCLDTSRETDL
Sequence of hERG (KCNH2) (Q12809 whole entry): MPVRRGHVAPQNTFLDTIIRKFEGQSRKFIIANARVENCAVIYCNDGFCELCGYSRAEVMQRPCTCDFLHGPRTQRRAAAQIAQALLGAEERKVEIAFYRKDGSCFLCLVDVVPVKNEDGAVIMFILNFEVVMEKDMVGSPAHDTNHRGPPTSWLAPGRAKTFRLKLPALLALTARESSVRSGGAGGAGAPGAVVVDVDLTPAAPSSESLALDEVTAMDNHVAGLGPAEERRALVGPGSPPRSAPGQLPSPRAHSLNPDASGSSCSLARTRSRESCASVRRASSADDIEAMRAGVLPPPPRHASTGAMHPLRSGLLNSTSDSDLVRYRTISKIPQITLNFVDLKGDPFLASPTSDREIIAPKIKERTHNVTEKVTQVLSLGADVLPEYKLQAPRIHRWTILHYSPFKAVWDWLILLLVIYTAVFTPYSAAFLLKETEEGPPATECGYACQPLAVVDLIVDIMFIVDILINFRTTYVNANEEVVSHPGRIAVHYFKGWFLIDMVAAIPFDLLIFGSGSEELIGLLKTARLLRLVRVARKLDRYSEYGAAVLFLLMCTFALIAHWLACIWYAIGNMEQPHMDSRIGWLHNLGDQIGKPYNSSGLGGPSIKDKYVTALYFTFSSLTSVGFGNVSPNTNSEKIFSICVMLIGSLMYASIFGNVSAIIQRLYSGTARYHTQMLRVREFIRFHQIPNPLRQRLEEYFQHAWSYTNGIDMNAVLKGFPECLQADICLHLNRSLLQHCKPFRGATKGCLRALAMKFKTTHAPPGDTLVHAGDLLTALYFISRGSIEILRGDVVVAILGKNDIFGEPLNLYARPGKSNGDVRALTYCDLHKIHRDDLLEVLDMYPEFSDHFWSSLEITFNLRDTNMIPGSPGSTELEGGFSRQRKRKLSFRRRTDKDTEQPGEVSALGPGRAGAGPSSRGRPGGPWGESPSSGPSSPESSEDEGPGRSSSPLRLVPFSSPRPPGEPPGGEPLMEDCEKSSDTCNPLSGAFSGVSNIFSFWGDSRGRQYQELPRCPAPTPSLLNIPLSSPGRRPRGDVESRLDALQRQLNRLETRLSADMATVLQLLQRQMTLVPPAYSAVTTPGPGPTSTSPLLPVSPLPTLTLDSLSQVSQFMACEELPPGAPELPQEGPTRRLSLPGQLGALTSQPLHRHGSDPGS

Row | Structure (SMILES) | pIC50 [1] | clearance [2] | half-life [5] | Vd [8] | inhibition at 10 µM [4] | other results
1 | COc1cccc2c1c(NCC(C)(C)c1ccccc1)nn2C | 6.70 | 12 mL/min/kg | 2.1 h | 1.7 L/kg | 69% | concentration [3]: 300 nM; Papp A→B [6]: 2.3 ×10⁻⁶ cm/s; Activity [7]: 6%; fraction unbound [9]: < 0.001
2 | COc1cccc2nc(Cl)nc(NCC(C)(C)c3ccccc3)c12 | 7.14 |  |  |  | 90% | 
3 | COc1ccc2c(NCC(C)(C)c3ccccc3)noc2c1 |  |  |  |  |  | Papp A→B [6]: 3.6 ×10⁻⁶ cm/s; inhibition [10]: 21%
4 | COc1cccc2c1C(NCC(C)(C)c1ccccc1)=NC2=O | 7.08 | 35 mL/min/kg | 0.8 h | 1.1 L/kg | 46% | Papp A→B [6]: 27 ×10⁻⁶ cm/s; Papp [11]: 79 ×10⁻⁶ cm/s
5 | COc1cccc2[nH]nc(NCC(C)(C)c3ccccc3)c12 |  |  |  |  |  | Papp A→B [6]: 9.4 ×10⁻⁶ cm/s; inhibition [10]: 37%
6 | COc1cccc2ccnc(NCC(C)(C)c3ccccc3)c12 | 7.66 | 124 mL/min/kg | 1.8 h | 14 L/kg | 99% | 
7 | CCNC(=O)O[C@H]1CC[C@](CNc2n[nH]c3cccc(OC)c23)(c2ccccc2)CC1 | 6.86 | 21 mL/min/kg | 1.3 h | 1.4 L/kg | 52% | Activity [12]: 22%; Activity [13]: Dose-dependent effect; Activity [14]: inactive; Activity [15]: 16%; Activity [16]: 5%; concentration [3]: 700 nM; inhibition in vivo at 3 mg/kg [17]: 17%; Papp [11]: 67 ×10⁻⁶ cm/s; Activity [7]: 15%; concentration [18]: 2400 nM; inhibition in vivo at 1 mg/kg [19]: 7%; fraction unbound [9]: 0.003
8 | CCNC(=O)O[C@H]1CC[C@](CNc2nn(C)c3cccc(OC)c23)(c2ccccc2)CC1 | 7.06 | 8 mL/min/kg | 1.4 h | 0.6 L/kg | 54% | 
9 | COc1ccc2onc(NCC(C)(C)c3ccccc3)c2c1 |  |  |  |  |  | inhibition [10]: 37%
10 | CC(C)(CNc1noc2cccc(Cl)c12)c1ccccc1 |  |  |  |  |  | inhibition [10]: 33%
11 | COc1cccc2nc(O)nc(NCC(C)(C)c3ccccc3)c12 | 7.64 |  |  |  | 50% | Papp [11]: 81.6 ×10⁻⁶ cm/s
12 | COc1cccc2ncnc(NCC(C)(C)c3ccccc3)c12 | 6.93 |  |  |  | 90% | 
13 | COc1cccc2c1c(NCC(C)(C)c1ccccc1)nn2C(C)C |  |  |  |  |  | inhibition [10]: 42%
14 | COc1cccc2onc(N(C)CC(C)(C)c3ccccc3)c12 | 6.73 |  |  |  |  | 

Now from value to molecule, other results behind:

Row | pIC50 [1] | clearance [2] | half-life [5] | Vd [8] | Structure (SMILES) | inhibition at 10 µM [4] | other results
15 | 6.11 |  |  |  | CC(C)(CNc1noc2ccccc12)c1ccccc1 |  | Papp A→B [6]: 11.6 ×10⁻⁶ cm/s
16 | 6.71 | 10 mL/min/kg | 0.8 h | 0.7 L/kg | COc1cccc2oc(=O)nc(NCC(C)(C)c3ccccc3)c12 | 66% | Papp [11]: 69.5 ×10⁻⁶ cm/s
17 | 7.60 | 28 mL/min/kg | 1.8 h | 3.9 L/kg | COc1cccc2snc(NCC(C)(C)c3ccccc3)c12 | 68% | 
18 | 7.37 | 22 mL/min/kg | 2.4 h | 3.7 L/kg | COc1cccc2onc(NCC(C)(C)c3ccccc3)c12 |  | Activity [14]: <5%; Activity [20]: <5%; concentration [21]: 8200 nM; fraction unbound [9]: < 0.001
19 | 6.66 |  |  |  | CCc1cccc2onc(NCC(C)(C)c3ccccc3)c12 |  | 
20 | 6.58 |  |  |  | CC(C)(CNc1noc2cccc(O)c12)c1ccccc1 |  | 
